Data published in US20240352402A1, “ENGINEERED BACTERIA FOR BIOSYNTHESIS OF PEPTIDE-BASED QUORUM SENSING INHIBITORS” (Wisconsin Alumni Research Foundation, priority 2023, published 2024).

System: S. aureus agr quorum sensing system (agr specificity groups I, II, III and IV)
Assay: Staphylococcus aureus agr reporter (antagonism) assay with pDB59 YFP reporter strains
Assay type: cell-based
Conditions: high concentrations, WT supernatant as vehicle control
Method: Supernatant samples were lyophilized in a FreeZone Freeze Dryer (Labconco). Fluorescence (EX 500 nm/EM 540 nm) and OD600 were read on a Synergy™ 2 plater reader (BioTek). Data was analyzed using Prism 9 software (GraphPad by Dotmatics).
In both P. megaterium and B. subtilis strains produced in Example 1, AIP production was induced by diluting overnight cultures 1:100 in LB containing 1% xylose. After 8 hours the cultures were centrifuged, and the supernatant was purified with a 0.22 μm filter. The supernatant was then lyophilized and reconstituted in sterile milli-Q water at 10× the original concentration.
Groups I-IV S. aureus strains containing the pDB59 plasmid were used to conduct agr antagonism assays. Assays were conducted as previously described,^1 with the following adjustments: 10×WT P. megaterium or B. subtilis supernatant was used as a vehicle control instead of DMSO and 20 μl of sample/vehicle control and 180 μl of 1:50 overnight S. aureus in brain heart infusion (BHI) growth medium was added to each well for inducible strains P. megaterium (FIG. 2) and B. subtilis (FIG. 3) from Example 1 and constitutive strain B. subtilis (FIG. 5) from Example 2.

AIP-III D4A
inhibition of agr activity in reporter assay (lyophilized B. subtilis supernatant (10x), n=9, FIG. 3): inhibit agr | inhibition of agr activity in reporter assay (lyophilized P. megaterium supernatant (10x), n=3, FIG. 2): inhibit agr
